# Data as given in patent publication US7335640B2, “Administration of hypocretin-1 for treatment of narcolepsy” (The Regents of the University of California, priority 1999, dated 2008).
# Entries after “also recorded” stand apart in the source; their conditions may differ.
# What was measured:
# [1] = in vivo; cited from earlier work
# [2] = Hcrt-1 levels by solid-phase RIA, normal human; format: in vivo
# Experimental: (§1) Prior to RIA, Hcrt-1 is extracted from the CSF or plasma sample. This is achieved by acidification of the sample with 1% TFA followed by loading onto a C18 Sep-Column, washing the column with 1% TFA, and eluting the peptide with 1% TFA/40% acetonitrile. The eluant is then dried down and re-suspended in RIA buffer ready for assay.
# The 96-well plates are first coated with protein A(Sigma, binding capacity 9-11 mg of human IgG per mg) by adding 0.1 μg in 100 μl of 0.1M sodium bicarbonate, pH9, to each well. The plates are normally prepared in advance and can be stored for several weeks at 4° C. when tightly wrapped to prevent drying out. However, it is possible to use them after approximately 2 h incubation at room temperature. The protein A solution is then discarded and the plates washed 3 times in a wash buffer consisting of 0.15M K2HPO4, 0.2 mM ascorbic acid, 0.2% Tween 20, pH7.5 and blotted on a paper towel. Next, 200 μl of assay buffer (same as wash buffer plus 0.1% gelatin) is pipetted into each well and left at room temperature for 30 min. This step is included in an attempt to remove protein A bound with only low affinity to the plate which might otherwise dissociate at later stages in the assay thereby removing bound antibody and tracer. After dumping this solution and blotting, 50 μl of the appropriate concentration of antibody diluted with assay buffer is added to all but 4 wells. To these 4 wells are added assay buffer alone to provide an index of non-specific binding. The antibody dilution used is that which is pre-determined to produce 20-30% maximum binding in the assay. The wells are then left for 2 h at room temperature.
# Standard solutions of Hcrt-1 are prepared in quadruplet ranging from 0.1 to 50 fmol in 50 μl. These standards (plus four blanks) are made up in RIA buffer. All dilutions are carried out in polypropylene tubes to minimize loss due to ‘sticking’. The contents of each tube are then transferred to the assay wells following dumping of the antibody solution, washing 3 times with wash buffer and blotting.
# A 2 h pre-incubation period at room temperature then follows. At the end of this time 50 μl of assay buffer containing approximately 5,000 CPM of ^125I-labeled tracer peptide is added to each well and the plate left to incubate overnight at 4° C. (this final incubation step can be reduced to approx. 2 h with only slight loss of sensitivity). Subsequently the contents of the wells are discarded and the wells washed 3 times with wash buffer and blotted prior to addition of Microscint 20 and counting in the Top Count plate reader. Results from the Solid-Phase Radioimmunoassay (RIA) for Hypocretin (Hcrt-1) are shown below in Table I: […]
# [3] = tested on: genetically narcoleptic Doberman pinschers; assay: modified food elicited cataplexy test (FECT); format: in vivo; conditions: for cataplexy (number of cataplectic attacks): FECT 4 min after administration; for FECT time (time to consume the food) / cataplexy (number of cataplectic attacks / falls): vs saline control
# Experimental: (§2) Six genetically narcoleptic Doberman pinschers (5 males and 1 female) served as subjects. We analyzed the effect of systemically administered Hcrt-1 on cataplexy with a modified food elicited cataplexy test (FECT). The effect of Hcrt-1 administration on sleep organization was determined using polygraph recording. The effect of Hcrt-1 administration on activity levels and the duration of sleep-waking states over the 24-hr period was determined with actigraphy.
# (§3) One to 4 μg/kg of Hcrt-1 (orexin-A, #003-30, Phoenix Pharmaceuticals, Mountain View, Calif.) dissolved in normal saline (100 μg in 2 ml) was administered through the cephalic vein using a glass syringe. The glass syringe was pre-soaked in 1% BSA, rinsed in Milli-Q water, then dried at 60° C. prior to use. This treatment combined with the large volume of the dilutent used minimizes problems caused by the “stickiness” of the peptide. On control days, saline was administered in the same manner. Hcrt-1 or control injections were administered daily at the same time.
# FECT was done by introducing a bowl of soft food (Pedigree, by Kalkan) in the home cage and counting the number of cataplectic attacks (including hind limb collapse and total cataplexies in which all four limbs collapse and the whole body contacts the floor) and total time required to eat the food (FECT time). All the FECTs began 4 min after the administration of Hcrt-1 or saline.
# (§4) Data were analyzed with ANOVA, followed by post-hoc comparisons using Newman-Keuls tests. Bonferroni t-tests were done to compare the effect of Hcrt-1 on sleep stages measured with polygraphic recording. One sample t-tests were performed to test the significance of number of cataplectic attacks and FECT time (expressed as a percentage of baseline) after Hcrt-1 within each dose.
# [4] = tested on: Hcrt-1 antiserum; assay: solid-phase radioimmunoassay (RIA) for Hcrt-1; format: binding; conditions: competition with 125I-labeled Hcrt-1
# Text: Furthermore, sensitivity is increased over that obtained with more traditional methods using identical antibodies and assay volumes. In this system, the antibody is immobilized onto the surface of 96-well Immulon II-coated plates (Dynatech) through attachment of the constant region of the immunoglobulin (Ig) molecule to the purified bacterial wall protein-protein A (the use of this protein greatly increases the capacity of the wells for antibody thereby avoiding the necessity for antibody purification). […] After a pre-determined incubation period separation of bound from free tracer peptide is accomplished by simply pouring out the contents of the wells and washing with buffer. For example, the individual wells of a 96-well plate containing Ab-bound tracer peptide are then physically separated and counted in a gamma counter. […]
# The Hcrt-1, iodinated Hcrt-1, and Hcrt-1 antiserum were obtained from Phoenix Pharmaceuticals, Inc. (530 Harbor Blvd, Belmont, Calif.). […] This enables direct reading of radioactivity in a Top Count plate reader (Packard) without the requirement to separate out individual wells.
# The 96-well plates are first coated with protein A(Sigma, binding capacity 9-11 mg of human IgG per mg) by adding 0.1 μg in 100 μl of 0.1M sodium bicarbonate, pH9, to each well. […] The antibody dilution used is that which is pre-determined to produce 20-30% maximum binding in the assay. […]
# [5] = tested on: genetically narcoleptic Doberman pinschers; assay: actigraphy of sleep-wake periods and activity level; format: in vivo
# Experimental: as §2, §3
# The effects of Hcrt-1 on sleep-wake periods were monitored continuously for 24 hrs/day with collar mounted actigraphs (Actiwatch, Mini Mitter Inc, Sundriver, Oreg.) while the animals remained in their home dog runs. Actigraphs were secured to a neck collar that was placed on the dogs throughout the period of study. Data were downloaded to a PC through an inductively coupled Actiwatch reader and further analyzed by a program of our design. The program could integrate total numbers of movements above a preset amplitude for a measurement of total level of activity in 5 minutes epochs. For analysis of sleep state, actigraphs were first calibrated by placing them on an animal instrumented for conventional polygraphic recording. A threshold was determined for discriminating polygraphically defined waking and sleep in 30-sec epochs. The durations of sleep periods were then counted and tabulated by computer. The sleep-wake bouts measured by actigraph correlated well with hypnograms obtained from polygraphic recording (r=0.84, p<0.001).
# as §4
# Actigraph measurements were used to calculate the duration of sleep and waking states for the nights following injection. First, comparisons of actigraphic measurements and polygraphically recorded sleep states were made and used to determine thresholds for distinguishing sleep and wake periods. Then wake and sleep state periods were quantified starting 2 hrs following administration. […] These effects lasted for more than 24 hrs (p<0.01, F=5.56, df=3, 15 and p<0.002, F=8.58, df=3, 15 for sleep and wake periods respectively). The frequency of sleep and wake bouts was reduced (p<0.05, F=3.35, df=3, 15 and p<0.05, F=3.40, df=3, 15, respectively) (FIG. 2b, 2c).
# [6] = Hcrt-1 levels by solid-phase RIA, narcoleptic dog; format: in vivo
# Experimental: In order to assess the effect of the intravenous Hcrt-1 injection on central levels of the compound, cerebrospinal fluid (CSF) and blood serum was collected and analyzed after infusion of Hcrt-1. In these studies, Hcrt-1 was injected intravenously as in the behavioral studies into two Doberman pinschers, one narcoleptic, and one control that had been anesthetized with Fluothane anesthesia. Saline was injected in a third dog, a non-narcoleptic control. Prior to injection and at 15, 30 min and one hour intervals after injection, CSF was collected from the cisterna magna with a spinal needle and then quickly frozen at −20. Hypocretin was extracted from 0.5-1 ml samples with reverse a phase SEP-PAK C18 column. An ^125I Hcrt-1 radioimmunoassay was used to measure levels in reconstituted aliquots (described below).
# as §1
# The 96-well plates are first coated with protein A(Sigma, binding capacity 9-11 mg of human IgG per mg) by adding 0.1 μg in 100 μl of 0.1M sodium bicarbonate, pH9, to each well. The plates are normally prepared in advance and can be stored for several weeks at 4° C. when tightly wrapped to prevent drying out. However, it is possible to use them after approximately 2 h incubation at room temperature. The protein A solution is then discarded and the plates washed 3 times in a wash buffer consisting of 0.15M K2HPO4, 0.2 mM ascorbic acid, 0.2% Tween 20, pH7.5 and blotted on a paper towel. Next, 200 μl of assay buffer (same as wash buffer plus 0.1% gelatin) is pipetted into each well and left at room temperature for 30 min. This step is included in an attempt to remove protein A bound with only low affinity to the plate which might otherwise dissociate at later stages in the assay thereby removing bound antibody and tracer. After dumping this solution and blotting, 50 μl of the appropriate concentration of antibody diluted with assay buffer is added to all but 4 wells. To these 4 wells are added assay buffer alone to provide an index of non-specific binding. The antibody dilution used is that which is pre-determined to produce 20-30% maximum binding in the assay. The wells are then left for 2 h at room temperature. […]
# A 2 h pre-incubation period at room temperature then follows. […] Subsequently the contents of the wells are discarded and the wells washed 3 times with wash buffer and blotted prior to addition of Microscint 20 and counting in the Top Count plate reader. […]
# [7] = tested on: genetically narcoleptic Doberman pinschers; assay: polygraphic recording of sleep-wake parameters; format: in vivo
# Experimental: as §2
# One to 4 μg/kg of Hcrt-1 (orexin-A, #003-30, Phoenix Pharmaceuticals, Mountain View, Calif.) dissolved in normal saline (100 μg in 2 ml) was administered through the cephalic vein using a glass syringe. The glass syringe was pre-soaked in 1% BSA, rinsed in Milli-Q water, then dried at 60° C. prior to use. This treatment combined with the large volume of the dilutent used minimizes problems caused by the “stickiness” of the peptide. […]
# Polygraphic recording. […] Polygraphic variables were recorded for 4 hrs after Hcrt-1 (3 μg/kg) or saline injection.
# as §4
# [8] = tested on: genetically narcoleptic Doberman pinschers; assay: health and behavior observed throughout the study; format: in vivo
# Experimental: as §2, §3
# [9] = tested on: REM sleep; conditions: intracerebroventricular administration; cited from earlier work
# [10] = 3 μg/kg, representative actigraph record
# [11] = single dose, from 2 hrs after administration
substance,measurement,setting,value
"iodinated Hcrt-1: iodinated Hcrt-1 reported in the literature to pass the BBB (QPLPDCCRQKTCSCRLYELLHGAGNHAAGILTL; Orexin-A iodinated; UniProt O43612 34-66, looked up)",passage of the BBB,[1],passes the BBB
"Hcrt-1: Hcrt-1 (orexin-A, #003-30, Phoenix Pharmaceuticals) peptide dissolved in normal saline (QPLPDCCRQKTCSCRLYELLHGAGNHAAGILTL; Orexin-A; UniProt O43612 34-66, looked up)",Mean level,[2]; Blood serum,0.01 nM
same,Range in levels,[2]; Blood serum,8 to 14 fmol/mL
same,Mean level,[2]; Cerebrospinal fluid,0.062 nM
same,Range in levels,[2]; Cerebrospinal fluid,21 to 203 fmol/mL
same,cataplexy (number of cataplectic attacks),[3]; 1 μg/kg intravenous,did not produce any change in cataplexy; also recorded: did not affect cataplexy
same,cataplexy (number of cataplectic attacks),[3]; 2 μg/kg intravenous,did not produce any change in cataplexy; also recorded: did not affect cataplexy
same,FECT time (time to consume the food),[3]; 3 μg/kg intravenous,reduction in the FECT time; also recorded: significant decrease
same,cataplexy (number of cataplectic attacks / falls),[3]; 3 μg/kg intravenous,reduction in cataplexy; also recorded: significant decrease in the number of falls
same,FECT time (time to consume the food),[3]; 4 μg/kg intravenous,significantly increased the FECT time
same,cataplexy (number of cataplectic attacks / falls),[3]; 4 μg/kg intravenous,significantly increased the severity of cataplexy; also recorded: significantly increased the number of falls
same,effect on cataplexy across doses,"[3]; 1 to 4 μg/kg intravenous, ANOVA",significant effect on cataplexy in a dose dependent manner; also recorded: dose dependent change in cataplexy
same,period without any cataplexy after repeated doses,"[3]; after 3-5 doses, two of the 3 dogs treated",≥ 3 days
same,time taken to finish the food during the period without cataplexy,[3]; after repeated doses,significantly reduced
same,period over which severity of cataplexy returned to pretreatment levels,"[3]; after repeated doses, both dogs",3 to 4 days
same,cataplexy after five doses (FIG. 1D),"[3]; five doses, more severely affected dog",complete suppression of cataplexy during the FECT observed on 3 tests given every other day over a 6 day period
same,cataplexy after three doses (FIG. 1C),"[3]; three doses, one dog",complete suppression of cataplexy for three consecutive days
same,IC50 value for this Hcrt-1 assay,[4],2 fmol
same,motor activity,"[5]; 3 μg/kg, after injection, vs saline",increased motor activity; also recorded: increase of motor activity was statistically significant at 0-30 and 30-60 minutes
same,onset of increase in motor activity after injection,[5]; [10],≤ 5 min
same,persistence of increase in motor activity,[5]; [10],60 min
same,sleep consolidation (sleep bout length),"[5]; periods of cataplexy suppression following repeated doses, vs baseline",consolidated (increased sleep bout length)
same,frequency of sleep bouts,[5]; single dose,reduced; also recorded: decrease in frequency
same,frequency of wake bouts,[5]; single dose,reduced
same,how long the effects on sleep and wake period duration lasted,[5]; single dose,more than 24 hrs
same,mean duration of sleep periods (sleep bout duration),[5]; [11],increased; also recorded: significant increase in sleep bout duration
same,mean duration of wake periods,[5]; [11],increased
same,total duration of sleep,[5]; vs pre-drug levels,"increased after Hcrt-1 as compared to pre-drug levels, but not significantly"
same,Mean level,[6]; Blood serum,0.011 nM
same,Range in levels,[6]; Blood serum,5 to 16 fmol/mL
same,Mean level,[6]; Cerebrospinal fluid,0.053 nM
same,Range in levels,[6]; Cerebrospinal fluid,26 to 140 fmol/mL
same,REM sleep,"[7]; 3 μg/kg, 4 hr post-injection period, vs saline",significant reduction; also recorded: significant decrease in REM sleep
same,nonREM sleep,[7]; after Hcrt-1 administration,without change
same,feeding / rate of food consumption,[8]; period of cataplexy suppression after repeated doses,normal feeding during FECTs; also recorded: consumed their food at a normal rate
same,abnormal behaviors,[8]; throughout the study,"no grooming, “wet dog shakes” or other abnormal behaviors"
same,general health of the dogs,[8]; throughout the study,excellent health
same,REM sleep,[9],selective suppression of REM sleep
